Experimental data reported in patent US9029325B2, “Amylin analogues and pharmaceutical compositions thereof” (Novo Nordisk A/S, priority 2011, dated 2015).
Starred links: 1 amine or outer side, 2 acyl side, 3 side chain; linkers in the order of their positions; H or OH if unused. Positions of bridges follow the written chain, without caps; N, C: chain ends. Residues, ends and D or L forms follow the SMILES beside them. *: point of attachment. C20 diacid = O=C(O)CCCCCCCCCCCCCCCCCCC(=O)*; C18 diacid = O=C(O)CCCCCCCCCCCCCCCCC(=O)*; γGlu = O=C(O)[C@H](CCC(=O)[*:2])N[*:1]

Assay: Assay (I) efficacy testing on appetite (food intake), ad libitum fed rat model
Type: in vivo, Sprague Dawley (SD) rats
From the text: Sprague Dawley (SD) rats from Taconic Europe, Denmark are used for the experiments. The rats have a body weight 200-250 g at the start of experiment. The rats arrive at least 10-14 days before start of experiment to allow acclimatization to experimental settings. During this period the animals are handled at least 2 times. After arrival rats are housed individually for one week in a reversed light/dark phase (meaning that lights are off during daytime and on during nighttime) […]. Since rats are normally active and eat their major part of their daily food intake during the dark period, rats are dosed in the morning right before lights are turned off. This set-up results in the lowest data variation and highst test sensitivity. The experiment is conducted in the rats' home cages and rats have free access to food and water througout the acclimatization period and the experiment period. Each dose of derivative is tested in a group of 5-8 rats. A vehicle group of 6-8 rats is included in each set of testing. Rats are dosed once according to body weight with a 0.01-3 mg/kg solution administered intraperitoneally (ip), orally (po) or subcutaneously (sc). The time of dosing is recorded for each group. After dosing, the rats are returned to their home cages, where they then have access to food and water. The food consumption is recorded individually continuously by on-line registration or manually every hour for 7 hours, and then after 24 h and sometimes 48 h. At the end of the experimental session, the animals are euthanised.
The individual data are recorded in Microsoft excel sheets. Outliers are excluded after applying the Grubbs statistical evaluation test for outliers, and the result is presented graphically using the GraphPad Prism program.

Compound	Food intake reduction 0-24 h 3 nmol/kg (%)	Food intake reduction 24-48 h 3 nmol/kg (%)	Food intake reduction 0-24 h 30 nmol/kg (%)	Food intake reduction 24-48 h 30 nmol/kg (%)
CC[C@H](C)[C@H](NC(=O)[C@@H]1CCCN1C(=O)CNC(=O)[C@H](Cc1ccccc1)NC(=O)[C@H](CC(N)=O)NC(=O)[C@H](CC(N)=O)NC(=O)[C@H](CO)NC(=O)[C@H](CO)NC(=O)[C@H](Cc1c[nH]cn1)NC(=O)[C@H](Cc1c[nH]cn1)NC(=O)[C@H](CC(C)C)NC(=O)[C@H](Cc1ccccc1)NC(=O)[C@H](CCC(=O)O)NC(=O)[C@H](C)NC(=O)[C@H](CC(C)C)NC(=O)[C@H](CCCNC(=N)N)NC(=O)[C@H](CCC(N)=O)NC(=O)[C@@H](NC(=O)[C@H](C)NC(=O)[C@@H]1CSSC[C@H](NC(=O)[C@H](CCCCN)NC(=O)CC[C@H](NC(=O)CCCCCCCCCCCCCCCCCCC(=O)O)C(=O)O)C(=O)N[C@@H](CC(N)=O)C(=O)N[C@@H]([C@@H](C)O)C(=O)N[C@@H](C)C(=O)N[C@@H]([C@@H](C)O)C(=O)N1)[C@@H](C)O)C(=O)N[C@@H](CC(C)C)C(=O)N1CCC[C@H]1C(=O)N1CCC[C@H]1C(=O)N[C@H](C(=O)N[C@@H](CC(N)=O)C(=O)N[C@H](C(=O)NCC(=O)N[C@@H](CO)C(=O)N[C@@H](Cc1c[nH]cn1)C(=O)N[C@H](C(=O)N[C@@H](Cc1ccc(O)cc1)C(N)=O)[C@@H](C)O)C(C)C)[C@@H](C)O [Example 55, N-alpha-[(S)-4-Carboxy-4-(19-carboxynonadecanoylamino)butyryl]-[Glu14,His17,His 35]-pramlintide] ({C20 diacid-γGlu}-KCNTATCATQRLAEFLHHSSNNFGPILPPTNVGSHTY-NH2; disulfide 2-7 (inferred); C-terminus assumed)	58%	40%	88%	90%
CC[C@H](C)[C@H](NC(=O)[C@@H]1CCCN1C(=O)CNC(=O)[C@H](Cc1ccccc1)NC(=O)[C@H](CC(N)=O)NC(=O)[C@H](CC(N)=O)NC(=O)[C@H](CO)NC(=O)[C@H](CO)NC(=O)[C@H](Cc1c[nH]cn1)NC(=O)[C@H](CCCNC(=N)N)NC(=O)[C@H](CC(C)C)NC(=O)[C@H](Cc1ccccc1)NC(=O)[C@H](CCC(=O)O)NC(=O)[C@H](C)NC(=O)[C@H](CC(C)C)NC(=O)[C@H](CCCNC(=N)N)NC(=O)[C@H](CCC(N)=O)NC(=O)[C@@H](NC(=O)[C@H](C)NC(=O)[C@@H]1CSSC[C@H](NC(=O)[C@H](CCCCN)NC(=O)CC[C@H](NC(=O)CCCCCCCCCCCCCCCCCCC(=O)O)C(=O)O)C(=O)N[C@@H](CC(N)=O)C(=O)N[C@@H]([C@@H](C)O)C(=O)N[C@@H](C)C(=O)N[C@@H]([C@@H](C)O)C(=O)N1)[C@@H](C)O)C(=O)N[C@@H](CC(C)C)C(=O)N1CCC[C@H]1C(=O)N1CCC[C@H]1C(=O)N[C@H](C(=O)N[C@@H](CC(N)=O)C(=O)N[C@H](C(=O)NCC(=O)N[C@@H](CO)C(=O)N[C@@H](Cc1c[nH]cn1)C(=O)N[C@H](C(=O)N[C@@H](Cc1ccc(O)cc1)C(N)=O)[C@@H](C)O)C(C)C)[C@@H](C)O [Example 57, N-alpha-[(S)-4-Carboxy-4-(19-carboxynonadecanoylamino)butyryl]-[Glu14,Arg17,His35]-pramlintide] ({C20 diacid-γGlu}-KCNTATCATQRLAEFLRHSSNNFGPILPPTNVGSHTY-NH2; disulfide 2-7 (inferred); C-terminus assumed)	17%	0%		
CC[C@H](C)[C@H](NC(=O)[C@@H]1CCCN1C(=O)CNC(=O)[C@H](Cc1ccccc1)NC(=O)[C@H](CC(N)=O)NC(=O)[C@H](CC(N)=O)NC(=O)[C@H](CO)NC(=O)[C@H](CO)NC(=O)[C@H](Cc1c[nH]cn1)NC(=O)[C@H](Cc1c[nH]cn1)NC(=O)[C@H](CC(C)C)NC(=O)[C@H](Cc1ccccc1)NC(=O)[C@H](CCC(=O)O)NC(=O)[C@H](C)NC(=O)[C@H](CC(C)C)NC(=O)[C@H](CCCNC(=N)N)NC(=O)[C@H](CCC(N)=O)NC(=O)[C@@H](NC(=O)[C@H](C)NC(=O)[C@@H]1CSSC[C@H](NC(=O)[C@H](CCCCN)NC(=O)CC[C@H](NC(=O)CCCCCCCCCCCCCCCCC(=O)O)C(=O)O)C(=O)N[C@@H](CC(N)=O)C(=O)N[C@@H]([C@@H](C)O)C(=O)N[C@@H](C)C(=O)N[C@@H]([C@@H](C)O)C(=O)N1)[C@@H](C)O)C(=O)N[C@@H](CC(C)C)C(=O)N1CCC[C@H]1C(=O)N1CCC[C@H]1C(=O)N[C@H](C(=O)N[C@@H](CC(N)=O)C(=O)N[C@H](C(=O)NCC(=O)N[C@@H](CO)C(=O)N[C@@H](Cc1c[nH]cn1)C(=O)N[C@H](C(=O)N[C@@H](Cc1ccc(O)cc1)C(N)=O)[C@@H](C)O)C(C)C)[C@@H](C)O [Example 59, N-alpha-[(S)-4-Carboxy-4-(17-carboxyheptadecanoylamino)butyryl]-[Glu14,His17,His 35]-pramlintide] ({C18 diacid-γGlu}-KCNTATCATQRLAEFLHHSSNNFGPILPPTNVGSHTY-NH2; disulfide 2-7 (inferred); C-terminus assumed)	59%	27%		
CC[C@H](C)[C@H](NC(=O)[C@@H]1CCCN1C(=O)CNC(=O)[C@H](Cc1ccccc1)NC(=O)[C@H](CC(N)=O)NC(=O)[C@H](CC(N)=O)NC(=O)[C@H](CO)NC(=O)[C@H](CO)NC(=O)[C@H](Cc1c[nH]cn1)NC(=O)[C@H](Cc1c[nH]cn1)NC(=O)[C@H](CC(C)C)NC(=O)[C@H](Cc1ccccc1)NC(=O)[C@H](CCC(=O)O)NC(=O)[C@H](C)NC(=O)[C@H](CC(C)C)NC(=O)[C@H](CCCNC(=N)N)NC(=O)[C@H](CCC(N)=O)NC(=O)[C@@H](NC(=O)[C@H](C)NC(=O)[C@@H]1CSSC[C@H](NC(=O)[C@H](Cc2c[nH]cn2)NC(=O)CC[C@H](NC(=O)CCCCCCCCCCCCCCCCCCC(=O)O)C(=O)O)C(=O)N[C@@H](CC(N)=O)C(=O)N[C@@H]([C@@H](C)O)C(=O)N[C@@H](C)C(=O)N[C@@H]([C@@H](C)O)C(=O)N1)[C@@H](C)O)C(=O)N[C@@H](CC(C)C)C(=O)N1CCC[C@H]1C(=O)N1CCC[C@H]1C(=O)N[C@H](C(=O)N[C@@H](CC(N)=O)C(=O)N[C@H](C(=O)NCC(=O)N[C@@H](CO)C(=O)N[C@@H](CC(N)=O)C(=O)N[C@H](C(=O)N1CCC[C@H]1C(N)=O)[C@@H](C)O)C(C)C)[C@@H](C)O [Example 84, N-alpha-[(S)-4-Carboxy-4-(19-carboxynonadecanoylamino)butyryl]-[His1, Glu14, His17, Pro37]-pramlintide] ({C20 diacid-γGlu}-HCNTATCATQRLAEFLHHSSNNFGPILPPTNVGSNTP-NH2; disulfide 2-7)	68%	67%		
CC[C@H](C)[C@H](NC(=O)[C@@H]1CCCN1C(=O)CNC(=O)[C@H](Cc1ccccc1)NC(=O)[C@H](CC(N)=O)NC(=O)[C@H](CC(N)=O)NC(=O)[C@H](CO)NC(=O)[C@H](CO)NC(=O)[C@H](CCCNC(=N)N)NC(=O)[C@H](Cc1c[nH]cn1)NC(=O)[C@H](CC(C)C)NC(=O)[C@H](Cc1ccccc1)NC(=O)[C@H](CCC(=O)O)NC(=O)[C@H](C)NC(=O)[C@H](CC(C)C)NC(=O)[C@H](CCCNC(=N)N)NC(=O)[C@H](CCC(N)=O)NC(=O)[C@@H](NC(=O)[C@H](C)NC(=O)[C@@H]1CSSC[C@H](NC(=O)[C@H](Cc2c[nH]cn2)NC(=O)CC[C@H](NC(=O)CCCCCCCCCCCCCCCCCCC(=O)O)C(=O)O)C(=O)N[C@@H](CC(N)=O)C(=O)N[C@@H]([C@@H](C)O)C(=O)N[C@@H](C)C(=O)N[C@@H]([C@@H](C)O)C(=O)N1)[C@@H](C)O)C(=O)N[C@@H](CC(C)C)C(=O)N1CCC[C@H]1C(=O)N1CCC[C@H]1C(=O)N[C@H](C(=O)N[C@@H](CC(N)=O)C(=O)N[C@H](C(=O)NCC(=O)N[C@@H](CO)C(=O)N[C@@H](CC(N)=O)C(=O)N[C@H](C(=O)N[C@@H](Cc1ccc(O)cc1)C(N)=O)[C@@H](C)O)C(C)C)[C@@H](C)O [compound 1] ({C20 diacid-γGlu}-HCNTATCATQRLAEFLHRSSNNFGPILPPTNVGSNTY-NH2; disulfide 2-7)	50%	45%	93%	92%
CC[C@H](C)[C@H](NC(=O)[C@@H]1CCCN1C(=O)CNC(=O)[C@H](Cc1ccccc1)NC(=O)[C@H](CC(N)=O)NC(=O)[C@H](CC(N)=O)NC(=O)[C@H](CO)NC(=O)[C@H](CO)NC(=O)[C@H](CCCNC(=N)N)NC(=O)[C@H](Cc1c[nH]cn1)NC(=O)[C@H](CC(C)C)NC(=O)[C@H](Cc1ccccc1)NC(=O)[C@H](CCC(=O)O)NC(=O)[C@H](C)NC(=O)[C@H](CC(C)C)NC(=O)[C@H](CCCNC(=N)N)NC(=O)[C@H](CCC(N)=O)NC(=O)[C@@H](NC(=O)[C@H](C)NC(=O)[C@@H]1CSSC[C@H](NC(=O)CC[C@H](NC(=O)CCCCCCCCCCCCCCCCCCC(=O)O)C(=O)O)C(=O)NCC(=O)N[C@@H]([C@@H](C)O)C(=O)N[C@@H](C)C(=O)N[C@@H]([C@@H](C)O)C(=O)N1)[C@@H](C)O)C(=O)N[C@@H](CC(C)C)C(=O)N1CCC[C@H]1C(=O)N1CCC[C@H]1C(=O)N[C@H](C(=O)N[C@@H](CCC(=O)O)C(=O)N[C@H](C(=O)NCC(=O)N[C@@H](CO)C(=O)NCC(=O)N[C@H](C(=O)N[C@@H](Cc1ccc(O)cc1)C(N)=O)[C@@H](C)O)C(C)C)[C@@H](C)O [compound 3] ({C20 diacid-γGlu}-CGTATCATQRLAEFLHRSSNNFGPILPPTEVGSGTY-NH2; disulfide 1-6 (inferred); C-terminus assumed)	37%	32%		
